From patent US11666561B2, “Compounds for use in regulating follicle maturation” (AARHUS UNIVERSITET, priority 2017, dated 2023)

System: primordial-to-primary follicle transition
Test: In vitro organ culture of mouse ovaries with compound, H&E histology and counting of primordial, primary and secondary follicles
Details: for effect on primordial-to-primary follicle transition / primordial follicle activation: in vitro cultured mouse ovaries, concentration not given
Experimental: Ovaries obtained from mice were washed twice with culture medium. Antagonists or agonists to be tested were dissolved in suitable solvents and added to the medium. As a control medium comprising solvent without the antagonist or agonist was used. One of the ovaries was cultured in a control medium and another was cultured with the antagonist or agonist. The tested antagonists or agonists and their concentrations are outlined in table 2.
Ovaries were incubated with antagonist at 37° C. and 5% CO2 for 24 and 96 hours, respectively (see table 3).
Cultures ovaries were fixed, embedded in paraffin and sliced microscopy. The sectioned ovaries were stained with hematoxylin and eosin (H&E) to visualize the morphology of the ovary by microscopy.
The number of primordial, primary and secondary follicles was determined, and it was determined whether the antagonist or agonist was capable of regulating folliculogenesis.
C57BL/6j×CBA F1 hybrid mice (Janvier Labs, France) were housed and bred in the animal facilities at Department of Biomedicine, Aarhus University. Animals were housed in a 12:12 h controlled light-dark environment and were provided with food and water ad libitum. 7-day-old female pups were used for the study.
Pups were sacrificed and ovaries were excised. Using a stereomicroscope MZ75 (Leica Microsystems, Germany), excess tissue was removed. During the dissection, ovaries were kept at 37° C. in culture medium: aMEM (Thermo Fisher) supplemented with 10% FBS (Thermo Fisher), 100 mIU/mL of FSH (Sigma-Aldrich), 100 IU/mL penicillin (Thermo Fisher), 100 μg/mL streptomycin (Thermo Fisher) and 1% Insulin-Transferrin-Selenium (Thermo Fisher). Isolated ovaries were transferred into well inserts (PET membrane ThinCert, 0.4 μm-pore size; Greiner bio-one) in 24-well plates (Tissue culture treated, cell culture plates; Costar). 200-300 μL of culture medium was added to the well below the insert and up to two ovaries were placed on the membrane of each insert. The culture medium was supplemented with different concentrations of the tested compounds; bpV(HOpic) (Sigma-Aldrich), Temsirolimus (Sigma-Aldrich), Ketotifen (Sigma-Aldrich), 3PO (Sigma-Aldrich), Dorsomorphin (Sigma-Aldrich), AICAR (Sigma-Aldrich), NCG (Sigma-Aldrich), and Dyphylline (Cayman Chemical). Up to six wells in the 24-well plate were used for inserts. Sterile dH2O was added to the rest of the wells to ensure humidity and reduce evaporation. The ovaries were cultured at 37° C., 5% CO2 for four days. 150 μL of medium was replaced every other day with fresh culture medium.
Ovaries kept in organ culture for four days were fixed for 24 hours in 4% paraformaldehyde solution at 4° C. After fixation, ovaries were dehydrated in ethanol series using 70%, 96% and 99.9% ethanol. Xylene was used as clearing agent before the ovaries were infiltrated in paraffin wax. 5 μm-sections of samples in paraffin were cut using a microtome (Cut 6062, SLEE medical, Germany). Paraffin sections were mounted on glass slides, paraffin was melted at 60° C., and the samples were stained with hematoxylin and eosin (using standard protocols).
The samples were deparaffinized by incubating in xylene for 2×15 min. and subsequently rehydrated in series of ethanol; 3×2 min. in 99.9% ethanol, 2 min. in 96% ethanol, and 2 min. in 70% ethanol. The samples were then rinsed in dH2O, stained in hematoxylin for 40 sec., rinsed in dH2O for 5 min., and stained in eosin for 46 sec. The samples were dehydrated in ethanol: 2×2 min. in 96% ethanol, 2×2 min in 99.9% ethanol, and finally cleared up in xylene for at least 30 min before mounting the samples using Eukitt mounting medium (Sigma-Aldrich) and cover glass.
The number of follicles at each developmental stage was counted using an inverted research microscope (DM14000B, Leica Microsystems, Germany). The follicles of every 3rd to 4th section of each ovary were counted and the distribution of follicles in the different stages in percentage was determined.

[1] = Table 1, effect with a figure cited
[2] = Table 2, effect with a figure cited
[3] = 30 μM 3PO, ovaries cultured four days, only healthy follicles counted

With `O=C1C=C/C(=C(/[O-])O)N=C1.[K+].[O-][O-].[O-][O-].[O]=[V]` [bpV(HOpic)] the “effect on primordial-to-primary follicle transition / primordial follicle activation” value was “increase the rate of primordial-to-primary transition”.
For `CC(C)[C@@H](CS(=O)(=O)C(C)C)N1C(=O)[C@@](C)(CC(=O)O)C[C@H](c2cccc(Cl)c2)[C@H]1c1ccc(Cl)cc1` [AMG-232, 2-[(3R,5R,6S)-5-(3-chlorophenyl)-6-(4-chlorophenyl)-3-methyl-1-[(2S)-3-methyl-1-propan-2-ylsulfonylbutan-2-yl]-2-oxopiperidin-3-yl]acetic acid], the Effect (Table 1, marked (ongoing)) was “promotes” and the Effect (Table 2, marked (ongoing)) was “promotes”.
Work on `c1cc(-c2cnn3cc(-c4ccc(OCCN5CCCCC5)cc4)cnc23)ccn1` [Dorsomorphin] yielded a primary follicles (5 μM dorsomorphin, four days) of 12.78±2.23%, a secondary follicles (5 μM dorsomorphin, four days) of 15.87±3.06% and a primordial follicles (5 μM dorsomorphin, four days, own control contaminated, compared with control of another experiment) of 71.32±5.50%.
In the case of `CC(=O)CCCCn1c(=O)c2c(ncn2C)n(C)c1=O` [Pentoxifylline, 3,7-dimethyl-1-(5-oxohexyl)purine-2,6-dione], the Effect (Table 1, marked (ongoing)) is reported as “promotes” and the Effect (Table 2, marked (ongoing)) is reported as “promotes”.
In the case of `C=CCN(/C=C1/C(=O)O[C@H](COC)[C@@]2(C)C1=C(O)C(=O)C1=C2[C@H](OC(C)=O)C[C@]2(C)C(=O)CC[C@@H]12)CC=C` [PX-866], the Effect (Table 1, marked (ongoing)) is reported as “promotes” and the Effect (Table 2, marked (ongoing)) is reported as “promotes”.
`Cn1c(=O)c2c(ncn2CC(O)CO)n(C)c1=O` (stereo not drawn) [Dyphylline, 7-(2,3-dihydroxypropyl)-1,3-dimethylpurine-2,6-dione] was tested, and the “effect on follicle distribution” value (10 and 100 μM Dyphylline, 96 hours, number too small for statistics) was “has the potential to activate primordial follicle distribution”, the Effect [1] was “Promotes” and the Effect [2] was “Promotes”. For the same compound, the “effect on primordial-to-primary follicle transition / primordial follicle activation” value was “activation of primordial follicles”.
In the case of `Nc1ccn([C@@H]2O[C@H](CO)[C@@H](O)[C@@H]2O)c(=O)n1` [MK-8242, 4-amino-1-[(2R,3S,4S,5R)-3,4-dihydroxy-5-(hydroxymethyl)oxolan-2-yl]pyrimidin-2-one], the Effect (Table 1, marked (ongoing)) is reported as “promotes” and the Effect (Table 2, marked (ongoing)) is reported as “promotes”.
For `COc1cc([C@@H]2c3cc4c(cc3[C@H](O)[C@H]3COC(=O)[C@@H]23)OCO4)cc(OC)c1OC` [Picropodophyllin, (5R,5aR,8aS,9R)-5-hydroxy-9-(3,4,5-trimethoxyphenyl)-5a,6,8a,9-tetrahydro-5H-[2]benzofuro[5,6-f][1,3]benzodioxol-8-one], the Effect (Table 1, marked (ongoing)) was “promotes” and the Effect (Table 2, marked (ongoing)) was “promotes”.
With `C=CC(=O)Nc1cc(Nc2nccc(-c3cn(C)c4ccccc34)n2)c(OC)cc1N(C)CCN(C)C` [Osimertinib, N-[2-[2-(dimethylamino)ethyl-methylamino]-4-methoxy-5-[[4-(1-methylindol-3-yl)pyrimidin-2-yl]amino]phenyl]prop-2-enamide] the Effect (Table 1, marked (ongoing)) was “promotes” and the Effect (Table 2, marked (ongoing)) was “promotes”.
In the case of `O=C1CCc2cc(OCCCCc3nnnn3C3CCCCC3)ccc2N1` [Cilostazol, 6-[4-(1-cyclohexyltetrazol-5-yl)butoxy]-3,4-dihydro-1H-quinolin-2-one], the Effect (Table 1, marked (ongoing)) is reported as “promotes” and the Effect (Table 2, marked (ongoing)) is reported as “promotes”.
With `CN(c1ncccc1CNc1nc(Nc2ccc3c(c2)CC(=O)N3)ncc1C(F)(F)F)S(C)(=O)=O` [PF-562271, N-methyl-N-[3-[[[2-[(2-oxo-1,3-dihydroindol-5-yl)amino]-5-(trifluoromethyl)pyrimidin-4-yl]amino]methyl]pyridin-2-yl]methanesulfonamide] the Effect (Table 1, marked (ongoing)) was “promotes” and the Effect (Table 2, marked (ongoing)) was “promotes”.
In the case of `COc1cc2c(cc1OC(C)C)[C@H](c1ccc(Cl)cc1)N(c1ccc(N(C)CC3CCC(N4CCN(C)C(=O)C4)CC3)cc1)C(=O)C2` (stereo partly drawn) [CGM097, (1S)-1-(4-chlorophenyl)-6-methoxy-2-[4-[methyl-[[4-(4-methyl-3-oxopiperazin-1-yl)cyclohexyl]methyl]amino]phenyl]-7-propan-2-yloxy-1,4-dihydroisoquinolin-3-one], the Effect (Table 1, marked (ongoing)) is reported as “promotes” and the Effect (Table 2, marked (ongoing)) is reported as “promotes”.
`CCCCNC(=O)NS(=O)(=O)c1ccc(C)cc1` [Tolbutamide, 1-butyl-3-(4-methylphenyl)sulfonylurea] was tested, and the Effect (Table 1, marked (ongoing)) was “promotes” and the Effect (Table 2, marked (ongoing)) was “promotes”.
With “Cixutumumab: fully human IgG1 monoclonal antibody directed against the human insulin-like growth factor-1 receptor” the Effect (Table 1, marked (ongoing)) was “promotes” and the Effect (Table 2, marked (ongoing)) was “promotes”.
`CC1(O)CC(c2nc(-c3ccc4ccc(-c5ccccc5)nc4c3)c3c(N)nccn23)C1` (stereo not drawn) [Linsitinib, 3-[8-amino-1-(2-phenylquinolin-7-yl)imidazo[1,5-a]pyrazin-3-yl]-1-methylcyclobutan-1-ol] was tested, and the Effect (Table 1, marked (ongoing)) was “promotes” and the Effect (Table 2, marked (ongoing)) was “promotes”.
In the case of `Nc1cc(-c2ccncc2)c[nH]c1=O` [Amrinone, 3-amino-5-pyridin-4-yl-1H-pyridin-2-one], the Effect (Table 1, marked (ongoing)) is reported as “promotes” and the Effect (Table 2, marked (ongoing)) is reported as “promotes”.
In the case of `COc1ncc(-c2nc3c(n2C(C)C)[C@H](c2ccc(Cl)cc2)N(c2cc(Cl)cn(C)c2=O)C3=O)c(OC)n1` [HDM201, (6S)-5-(5-chloro-1,2-dihydro-1-methyl-2-oxo-3-pyridinyl)-6-(4-chlorophenyl)-2-(2,4-dimethoxy-5-pyrimidinyl)-5,6-dihydro-1-(1-methylethyl)-Pyrrolo[3,4-d]imidazol-4(1H)-one], the Effect (Table 1, marked (ongoing)) is reported as “promotes” and the Effect (Table 2, marked (ongoing)) is reported as “promotes”.
For `Cn1c(=O)c2[nH]cnc2n(C)c1=O` [Theophylline, 1,3-dimethyl-7H-purine-2,6-dione], the Effect (Table 1, marked (ongoing)) was “promotes” and the Effect (Table 2, marked (ongoing)) was “promotes”.
In the case of `CN(C)C/C=C/C(=O)Nc1cc2c(Nc3ccc(F)c(Cl)c3)ncnc2cc1O[C@H]1CCOC1` [Afatinib, (E)-N-[4-(3-chloro-4-fluoroanilino)-7-[(3S)-oxolan-3-yl]oxyquinazolin-6-yl]-4-(dimethylamino)but-2-enamide], the Effect (Table 1, marked (ongoing)) is reported as “promotes” and the Effect (Table 2, marked (ongoing)) is reported as “promotes”.
Work on `O=C(C=Cc1cccnc1)c1ccncc1` [3PO, 3-(3-pyridinyl)-1-(4-pyridinyl)-2-propen-1-one] yielded a primary follicles [3] of 26.60±11.24%, a primordial follicles [3] of 63.11±8.83% and a secondary follicles [3] of 11.58±9.07%. The “health of follicles in treated ovaries” value (3PO treated ovaries) was “several of the follicles seemed atretic”, the Effect [1] was “promotes” and the Effect [2] was “promotes”. For the same compound, the “effect on primordial-to-primary follicle transition / primordial follicle activation” value was “promote primordial-to-primary transition”.
With `Cn1c(=O)n(-c2ccc(C(C)(C)C#N)cc2)c2c3cc(-c4cnc5ccccc5c4)ccc3ncc21` [Dactolisib, -methyl-2-(4-(3-methyl-2-oxo-8-(quinolin-3-yl)-2,3-dihydro-1H-imidazo[4,5-c]quinolin-1-yl)phenyl)propanenitrile] the Effect (Table 1, marked (ongoing)) was “promotes” and the Effect (Table 2, marked (ongoing)) was “promotes”.
In the case of `Cc1nccc2[nH]c(=O)ccc12` [Medorinone, 5-methyl-1H-1,6-naphthyridin-2-one], the Effect (Table 1, marked (ongoing)) is reported as “promotes” and the Effect (Table 2, marked (ongoing)) is reported as “promotes”.
In the case of `Cc1c(NC(=O)OC[C@@H]2COCCN2)cn2ncnc(Nc3ccc4c(cnn4Cc4cccc(F)c4)c3)c12` [BMS-599626, [(3S)-morpholin-3-yl]methyl N-[4-[[1-[(3-fluorophenyl)methyl]indazol-5-yl]amino]-5-methylpyrrolo[2,1-f][1,2,4]triazin-6-yl]carbamate], the Effect (Table 1, marked (ongoing)) is reported as “promotes” and the Effect (Table 2, marked (ongoing)) is reported as “promotes”.
In the case of `CO[C@H]1C[C@@H]2CC[C@@H](C)[C@@](O)(O2)C(=O)C(=O)N2CCCC[C@H]2C(=O)O[C@H]([C@H](C)C[C@@H]2CC[C@@H](OC(=O)C(C)(CO)CO)[C@H](OC)C2)CC(=O)[C@H](C)/C=C(\C)[C@@H](O)[C@@H](OC)C(=O)[C@H](C)C[C@H](C)/C=C/C=C/C=C/1C` [Temsirolimus], the “effect on primordial-to-primary follicle transition / primordial follicle activation” value is reported as “decrease the rate of primordial-to-primary transition”.
